Laboratory results taken from patent publication US7683048B2, “Polymorphis of a known thiophenecarboxylic acid dodecahydrocyclopenta (a) phenanthrenyl ester” (Novartis AG, priority 2002, dated 2010).

Tests used:
Assay type in all cases: physicochemical
[1] = Interconversion of crystal forms in the presence of solvent
[2] = Stability of crystal forms after 4 weeks at 80° C., analyzed by XRPD; details: for Crystal form found by XRPD after storage (stability): 4 weeks at 80° C.; for Conversion in the solid state on storage: stored for 4 weeks at 80° C.
Description: Samples of the compound of formula I in crystal form A, the compound of formula I in crystal form B, a mixture of both crystal forms and an amorphous form of the compound of formula I (obtained by spray drying) are stored for 4 weeks at 80° C. under different conditions and analyzed by X-ray powder diffraction (XRPD).

[3] = Heat of solution at 25° C. in acetone
Description: The heat of solution of samples of crystal forms A and B of the compound of formula I are measured at 25° C. in acetone.

With COC(=O)[C@@]1(OC(=O)c2sccc2C)[C@H](C)CC2C3C[C@H](F)C4=CC(=O)C=C[C@]4(C)[C@@]3(Cl)[C@@H](O)C[C@@]21C (stereo partly drawn) [Crystal form B, 3-methylthiophene-2-carboxylic acid (6S,9R,10S,11S, 13S,16R,17R)-9-chloro-6-fluoro-11-hydroxy-17-methoxycarbonyl-10,13,16-trimethyl-3-oxo-6,7,8,9,10,11,12,13,14,15,16,17-dodecahydro-3H-cyclopenta[a]phenanthren-17-yl ester] the “Conversion of crystal form in the presence of isopropanol” value ([1]; in the presence of isopropanol) was “converts to crystal form A”, the “Crystal form found by XRPD after storage (stability)” value (“Crystal form found by XRPD” for short) ([2]; 75% r.h. (relative humidity), open) was “A + B” and the “Crystal form found by XRPD” value ([2]; N2 + 2% water) was “A + B”. The “Crystal form found by XRPD” value ([2]; O2) was “A + B”, the “Conversion in the solid state on storage” value ([2]; solid state, listed as crystal form B) was “can convert at least partially in the solid state into crystal form A” and the Heat of solution ([3]; listed as B) was 17.9 J/g.
For COC(=O)[C@@]1(OC(=O)c2sccc2C)[C@H](C)CC2C3C[C@H](F)C4=CC(=O)C=C[C@]4(C)[C@@]3(Cl)[C@@H](O)C[C@@]21C (stereo partly drawn) [Crystal form A, 3-methylthiophene-2-carboxylic acid (6S,9R,10S,11S, 13S,16R,17R)-9-chloro-6-fluoro-11-hydroxy-17-methoxycarbonyl-10,13,16-trimethyl-3-oxo-6,7,8,9,10,11,12,13,14,15,16,17-dodecahydro-3H-cyclopenta[a]phenanthren-17-yl ester], the “Conversion of crystal form in the presence of ethanol” value ([1]; in the presence of ethanol) was “converts to crystal form B”, the “Relative thermodynamic stability (from storage test)” value ([2]; solid state, versus crystal form B) was “more thermodynamically stable than crystal form B” and the Heat of solution ([3]; listed as A) was 29.3 J/g. The “Relative thermodynamic stability (from heat of solution)” value ([3]; versus crystal form B) was “more thermodynamically stable than crystal form B”.
In the case of COC(=O)[C@@]1(OC(=O)c2sccc2C)[C@H](C)CC2C3C[C@H](F)C4=CC(=O)C=C[C@]4(C)[C@@]3(Cl)[C@@H](O)C[C@@]21C (stereo partly drawn) [Amorphous form, 3-methylthiophene-2-carboxylic acid (6S,9R,10S,11S, 13S,16R,17R)-9-chloro-6-fluoro-11-hydroxy-17-methoxycarbonyl-10,13,16-trimethyl-3-oxo-6,7,8,9,10,11,12,13,14,15,16,17-dodecahydro-3H-cyclopenta[a]phenanthren-17-yl ester], the “Conversion in the solid state on storage” value ([2]; solid state, listed as amorphous form) was “can also convert into crystal form A”.
In the case of COC(=O)[C@@]1(OC(=O)c2sccc2C)[C@H](C)CC2C3C[C@H](F)C4=CC(=O)C=C[C@]4(C)[C@@]3(Cl)[C@@H](O)C[C@@]21C (stereo partly drawn) [Crystal forms A + B, 3-methylthiophene-2-carboxylic acid (6S,9R,10S,11S, 13S,16R,17R)-9-chloro-6-fluoro-11-hydroxy-17-methoxycarbonyl-10,13,16-trimethyl-3-oxo-6,7,8,9,10,11,12,13,14,15,16,17-dodecahydro-3H-cyclopenta[a]phenanthren-17-yl ester], the “Crystal form found by XRPD” value ([2]; N2) was “A + B” and the “Crystal form found by XRPD” value ([2]; sealed) was “A + B”.
